Measured values published in PMC8119482, “A novel dual HDAC and HSP90 inhibitor, MPT0G449, downregulates oncogenic pathways in human acute leukemia in vitro and in vivo” (Oncogenesis, 2021).

Biological target: T1, HDAC6 (Homo sapiens, UniProt Q9UBN7)
T1 sequence (Q9UBN7 1-1215): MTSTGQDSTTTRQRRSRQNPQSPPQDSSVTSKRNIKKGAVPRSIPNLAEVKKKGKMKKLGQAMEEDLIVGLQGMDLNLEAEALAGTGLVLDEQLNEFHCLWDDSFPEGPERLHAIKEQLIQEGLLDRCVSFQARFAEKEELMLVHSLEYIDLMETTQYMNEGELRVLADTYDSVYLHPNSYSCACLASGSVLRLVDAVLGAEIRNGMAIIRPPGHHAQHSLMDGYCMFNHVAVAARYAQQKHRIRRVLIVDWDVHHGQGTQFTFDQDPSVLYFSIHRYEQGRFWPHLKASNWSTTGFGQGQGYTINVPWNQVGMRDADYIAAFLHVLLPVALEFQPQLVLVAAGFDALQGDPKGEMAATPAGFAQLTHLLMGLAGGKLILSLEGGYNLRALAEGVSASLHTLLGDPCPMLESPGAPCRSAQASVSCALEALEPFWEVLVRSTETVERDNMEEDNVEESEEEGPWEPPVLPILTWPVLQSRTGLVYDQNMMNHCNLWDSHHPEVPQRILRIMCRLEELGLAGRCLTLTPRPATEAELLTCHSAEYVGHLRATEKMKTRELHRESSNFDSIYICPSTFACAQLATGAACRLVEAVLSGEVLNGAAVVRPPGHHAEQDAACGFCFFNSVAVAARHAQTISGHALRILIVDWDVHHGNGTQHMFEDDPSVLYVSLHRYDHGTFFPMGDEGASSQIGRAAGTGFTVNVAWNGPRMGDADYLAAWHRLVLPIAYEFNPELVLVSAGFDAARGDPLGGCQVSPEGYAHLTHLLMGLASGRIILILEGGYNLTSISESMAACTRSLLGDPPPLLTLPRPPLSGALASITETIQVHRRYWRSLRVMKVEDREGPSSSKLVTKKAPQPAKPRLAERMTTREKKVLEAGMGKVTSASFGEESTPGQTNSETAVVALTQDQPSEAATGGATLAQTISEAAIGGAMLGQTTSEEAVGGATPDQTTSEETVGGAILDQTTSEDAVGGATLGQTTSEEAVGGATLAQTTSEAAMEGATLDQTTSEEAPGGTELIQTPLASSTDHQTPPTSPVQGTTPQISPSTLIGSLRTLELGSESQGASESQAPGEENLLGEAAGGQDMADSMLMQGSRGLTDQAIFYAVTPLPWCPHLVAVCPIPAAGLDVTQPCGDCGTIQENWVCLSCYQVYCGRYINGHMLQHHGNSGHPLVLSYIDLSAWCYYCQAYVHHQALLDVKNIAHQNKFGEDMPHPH
Test: HDAC isoform activity assay (Reaction Biology Corp.); values not shown in main text
Type: biochemical

CC(C)c1cc(C(=O)N(C)c2ccc(NC(=O)CCCCCCCC(=O)NO)cc2)c(O)cc1O [compound 26, MPT0G449]
HDAC isoform activity assay (Reaction Biology Corp.); values not shown in main t: HDAC6 was selected because MPT0G499 exhibited the most potent inhibition.
